Paper PMC11769294, “(E)-1-(3-(3-Hydroxy-4-Methoxyphenyl)-1-(3,4,5-Trimethoxyphenyl)allyl)-1H-1,2,4-Triazole and Related Compounds: Their Synthesis and Biological Evaluation as Novel Antimitotic Agents Targeting Breast Cancer” (Pharmaceuticals, 2025)

How the values were obtained:
Type in all cases: cell-based, human
[1] = system: LOX IMVI (Melanoma); assay: NCI60 screen (SRB); conditions: one dose 10 µM, 48 h
[2] = system: HOP-62 (Non-Small Cell Lung Cancer); assay: NCI60 screen (SRB); conditions: one dose 10 µM, 48 h
[3] = system: NCI-H23 (Non-Small Cell Lung Cancer); assay: NCI60 screen (SRB); conditions: one dose 10 µM, 48 h
[4] = system: A549/ATCC (Non-Small Cell Lung Cancer); assay: NCI60 screen (SRB); conditions: one dose 10 µM, 48 h
[5] = system: OVCAR-8 (Ovarian Cancer); assay: NCI60 screen (SRB); conditions: one dose 10 µM, 48 h
[6] = system: NCI-H522 (Non-Small Cell Lung Cancer); assay: NCI60 screen (SRB); conditions: one dose 10 µM, 48 h
[7] = system: RPMI-8226 (Leukemia); assay: NCI60 screen (SRB); conditions: one dose 10 µM, 48 h
[8] = system: NCI/ADR-RES (Ovarian Cancer); assay: NCI60 screen (SRB); conditions: one dose 10 µM, 48 h
[9] = system: DU-145 (Prostate Cancer); assay: NCI60 screen (SRB); conditions: one dose 10 µM, 48 h
[10] = system: OVCAR-5 (Ovarian Cancer); assay: NCI60 screen (SRB); conditions: one dose 10 µM, 48 h
[11] = system: COLO 205 (Colon Cancer); assay: NCI60 screen (SRB); conditions: one dose 10 µM, 48 h
[12] = system: M14 (Melanoma); assay: NCI60 screen (SRB); conditions: one dose 10 µM, 48 h
[13] = system: EKVX (Non-Small Cell Lung Cancer); assay: NCI60 screen (SRB); conditions: one dose 10 µM, 48 h
[14] = system: NCI 60 cancer cell line panel; assay: NCI60 screen (SRB), all cell lines; conditions: over the 60-cell line panel; one dose 10 µM; 48 h
[15] = system: HS 578T (Breast Cancer); assay: NCI60 screen (SRB); conditions: HS 578T; one dose 10 µM; 48 h
[16] = system: SK-MEL-2 (Melanoma); assay: NCI60 screen (SRB); conditions: one dose 10 µM, 48 h
[17] = system: CCRF-CEM (Leukemia); assay: NCI60 screen (SRB); conditions: one dose 10 µM, 48 h
[18] = system: UACC-257 (Melanoma); assay: NCI60 screen (SRB); conditions: one dose 10 µM, 48 h
[19] = system: SNB-75 (CNS Cancer); assay: NCI60 screen (SRB); conditions: one dose 10 µM, 48 h
[20] = system: RXF 393 (Renal Cancer); assay: NCI60 screen (SRB); conditions: one dose 10 µM, 48 h
[21] = system: U251 (CNS Cancer); assay: NCI60 screen (SRB); conditions: one dose 10 µM, 48 h
[22] = system: A498 (Renal Cancer); assay: NCI60 screen (SRB); conditions: one dose 10 µM, 48 h
[23] = system: IGROV1 (Ovarian Cancer); assay: NCI60 screen (SRB); conditions: one dose 10 µM, 48 h
[24] = system: SK-MEL-28 (Melanoma); assay: NCI60 screen (SRB); conditions: one dose 10 µM, 48 h
[25] = system: OVCAR-4 (Ovarian Cancer); assay: NCI60 screen (SRB); conditions: one dose 10 µM, 48 h
[26] = system: PC-3 (Prostate Cancer); assay: NCI60 screen (SRB); conditions: one dose 10 µM, 48 h
[27] = system: MDA-MB-468 (Breast Cancer); assay: NCI60 screen (SRB); conditions: one dose 10 µM, 48 h
[28] = system: SNB-19 (CNS Cancer); assay: NCI60 screen (SRB); conditions: one dose 10 µM, 48 h
[29] = system: breast cancer panel; assay: NCI60 screen (SRB), panel mean; conditions: BC panel; one dose 10 µM; 48 h
[30] = system: UO-31 (Renal Cancer); assay: NCI60 screen (SRB); conditions: one dose 10 µM, 48 h
[31] = system: SF-295 (CNS Cancer); assay: NCI60 screen (SRB); conditions: one dose 10 µM, 48 h
[32] = system: UACC-62 (Melanoma); assay: NCI60 screen (SRB); conditions: one dose 10 µM, 48 h
[33] = system: HCT-15 (Colon Cancer); assay: NCI60 screen (SRB); conditions: one dose 10 µM, 48 h
[34] = system: OVCAR-3 (Ovarian Cancer); assay: NCI60 screen (SRB); conditions: one dose 10 µM, 48 h
[35] = system: 786-0 (Renal Cancer); assay: NCI60 screen (SRB); conditions: one dose 10 µM, 48 h
[36] = system: SK-MEL-5 (Melanoma); assay: NCI60 screen (SRB); conditions: one dose 10 µM, 48 h
[37] = system: SF-539 (CNS Cancer); assay: NCI60 screen (SRB); conditions: one dose 10 µM, 48 h
[38] = system: NCI-H460 (Non-Small Cell Lung Cancer); assay: NCI60 screen (SRB); conditions: one dose 10 µM, 48 h
[39] = system: SN12C (Renal Cancer); assay: NCI60 screen (SRB); conditions: one dose 10 µM, 48 h
[40] = system: HCC-2998 (Colon Cancer); assay: NCI60 screen (SRB); conditions: one dose 10 µM, 48 h

With `COc1ccc(/C=C/C(c2cc(OC)c(OC)c(OC)c2)n2ccnc2)cc1O` (centres unmarked) [Compound 23b, (E)-5-(3-(1H-Imidazol-1-yl)-3-(3,4,5-trimethoxyphenyl)prop-1-en-1-yl)-2-methoxyphenol] the growth percent [1] was 46.09%, the growth percent [2] was 47.25% and the growth percent [3] was 55.69%. It also gave a growth percent [4] of 29.07%, a growth percent [5] of 40.97% and a growth percent [6] of 24.65%. The growth percent [7] was 15.14%, the growth percent [8] was 45.70% and the growth percent [9] was 37.76%. It also gave a growth percent [10] of 102.8%, a growth percent [11] of 89.81% and a growth percent [12] of 18.61%. It also gave a growth percent [13] of 81.22%, a mean growth percent [14] of 39.7% and a growth percent [15] of 32.05%. For the same compound, the growth percent [16] was 41.65%, the growth percent [17] was 37.13% and the growth percent [18] was 34.19%. For the same compound, the growth percent [19] was 20.04%, the growth percent [20] was 33.07% and the growth percent [21] was 27.12%. For the same compound, the growth percent [22] was 67.46%, the growth percent [23] was 55.74% and the growth percent [24] was 58.86%. For the same compound, the growth percent [25] was 78.81%, the growth percent [26] was 25.28% and the growth percent [27] was 40.60%. The growth percent [28] was 47.27%, the mean growth percentage [29] was 38.1% and the growth percent [30] was 59.92%. For the same compound, the growth percent [31] was 16.59%, the growth percent [32] was 36.37% and the growth percent [33] was 24.91%. For the same compound, the growth percent [34] was 4.86%, the growth percent [35] was 34.04% and the growth percent [36] was 16.98%. The growth percent [37] was 23.09%, the growth percent [38] was 16.55% and the growth percent [39] was 57.15%. The growth percent [40] was 76.97%.
With `COc1cc(/C=C/C(/C=C/c2cc(OC)c(OC)c(OC)c2)n2ccnc2)cc(OC)c1OC` [Compound 30, 1-((1E,4E)-1,5-bis(3,4,5-trimethoxyphenyl)penta-1,4-dien-3-yl)-1H-imidazole] the growth percent [1] was 85.14%, the growth percent [2] was 84.91% and the growth percent [3] was 81.16%. It also gave a growth percent [4] of 78.93%, a growth percent [5] of 83.74% and a growth percent [6] of 64.75%. The growth percent [7] was 60.48%, the growth percent [8] was 89.35% and the growth percent [9] was 100.17%. The growth percent [10] was 129.83%, the growth percent [11] was 99.42% and the growth percent [12] was 82.03%. The growth percent [13] was 94.43%, the mean growth percent [14] was 81.3% and the growth percent [15] was 77.21%. It also gave a growth percent [16] of 81.02%, a growth percent [17] of 65.10% and a growth percent [18] of 75.61%. For the same compound, the growth percent [19] was 54.99%, the growth percent [20] was 88.15% and the growth percent [21] was 81.64%. It also gave a growth percent [22] of 104.55%, a growth percent [23] of 78.02% and a growth percent [24] of 100.52%. It also gave a growth percent [25] of 92.69%, a growth percent [26] of 58.09% and a growth percent [27] of 57.22%. For the same compound, the growth percent [28] was 89.08%, the mean growth percentage [29] was 71.5% and the growth percent [30] was 66.56%. The growth percent [31] was 95.73%, the growth percent [32] was 68.23% and the growth percent [33] was 77.23%. For the same compound, the growth percent [34] was 83.41%, the growth percent [35] was 95.20% and the growth percent [36] was 62.09%. It also gave a growth percent [37] of 93.55%, a growth percent [38] of 93.96% and a growth percent [39] of 84.52%. It also gave a growth percent [40] of 99.87%.
